Laboratory results published in patent US7582646B2, “Pyrimidine derivatives for treatment of hyperproliferative disorders” (Bayer Pharmaceuticals Corporation, priority 2003, dated 2009).
Where a name gives a salt, the structure may show the parent alone. Read-outs that look alike come from different tables or passages of the source.

Columns and labels:
HCT116 cells [1] = assay: HCT116 cytotoxic activity assay (Alamar Blue, 72 h); conditions: Homo sapiens, HCT-116, read-out: IC50 in the HCT116 cytotoxic activity assay
Description: (§1) Human tumor cells, e.g., HCT116 cells, are seeded in a 96-well plate at 3.0×10^3 cells/well and grown in 100 μl of RPMI complete media (Invitrogen Corporation, Grand Island, N.Y.) containing 10% fetal bovine serum (Hyclone, Logan, Utah) and 10 mM HEPES and at 37° C. for 16 h in an incubator with 5% CO2. To each well, 50 μl of additional growth media containing 20 μM to 60 nM concentrations of compound with 0.2% DMSO is added. Cells are grown for another 72 h at 37° C. 20 μl of Alamar Blue (Trek Diagnostic Systems, Inc., Cleveland, Ohio) reagent is added to each well and incubated for 4 h at 37° C. Plates are read in a SpectraMax Gemini (Molecular Devices, CA) with 544 nm excitation and 590 nm emission wavelength. IC50 values are determined by linear regression analysis of log drug concentration versus percent inhibition.

HCT116 cells [2] = test system: HCT116 cells
Description: as §1

In the case of `COC[C@@H]1CCCN1C(=O)c1cc(Oc2ccc(Nc3cc(-c4ccccc4)nc(N)n3)cc2)ccn1` [Example 81, N4*-{4-[(2-{[(2S)-2-(methoxymethylpyrrolidin-1-yl]carbonyl}pyridin-4-yl)oxy]phenyl}-6-phenylpyrimidine-2,4-diamine trifluoroacetate], the IC50 (HCT116 cells [1]) is reported as > 2000 nM.

In the case of `NCCCC(=O)Nc1ccc(-c2cc(Nc3ccc(Oc4ccnc(C(F)(F)F)c4)cc3)nc(N)n2)cc1` [Example 152, 4-amino-N-(4-{2-amino-6-[(4-{[2-(trifluoromethyl)pyridin-4-yl]oxy}phe-nyl)amino]pyrimidin-4-yl}phenyl)butanamide trifluoroacetate], the IC50 (HCT116 cells [1]) is reported as 500 to 2000 nM.

In the case of `NCc1cc(Oc2ccc(Nc3cc(-c4ccccc4)nc(N)n3)cc2)ccn1` [Example 39, N^4-(4-{[2-(aminomethyl)pyridin-4-yl]oxy}phenyl)-6-phenylpyrimidine-2,4-diamine], the IC50 (HCT116 cells [1]) is reported as ≤ 500 nM.

In the case of `NCC(=O)Nc1ccc(-c2cc(Nc3ccc(Oc4ccnc(C(F)(F)F)c4)cc3)nc(N)n2)cc1` [Example 151, N-(4-{2-amino-6-[(4-{[2-(trifluoromethyl)pyridin-4-yl]oxy}phe-nyl)amino]pyrimidin-4-yl}phenyl)glycinamide trifluoroacetate], the IC50 (HCT116 cells [1]) is reported as ≤ 500 nM.

For `COc1cc(-c2cc(Nc3ccc(Oc4ccnc(C#N)c4)cc3)nc(N)n2)ccc1N` [Example 179, 4-(4-{[2-amino-6-(4-amino-3-methoxyphenyl)pyrimidin-4-yl]a-mino}phenoxy)pyridine-2-carbonitrile trifluoroacetate], the IC50 (HCT116 cells [1]) was ≤ 500 nM.

In the case of `N#CCc1ccc(-c2cc(Nc3cccc(Oc4ccnc(C(N)=O)c4)c3)nc(N)n2)cc1` [Example 294, 4-[3-({2-amino-6-[4-(cyanomethyl)phenyl]pyrimidin-4-yl}amino)phenoxy] pyridine-2-carboxamide], the IC50 (HCT116 cells [2]) is reported as 500 to 2000 nM.

For `CC(C)S(=O)(=O)NCc1cc(Oc2ccc(Nc3cc(-c4ccccc4)nc(N)n3)cc2)ccn1` [Example 95, N-[(4-{4-[(2-amino-6-phenylpyrimidin-4-yl)amino]phenoxy}pyridin-2-yl)methyl]propane-2-sulfonamide trifluoroacetate], the IC50 (HCT116 cells [1]) was ≤ 500 nM.

With `COc1ccc(S(=O)(=O)NCc2cc(Oc3ccc(Nc4cc(-c5ccccc5)nc(N)n4)cc3)ccn2)cc1` [Example 97, N-[(4-{4-[(2-amino-6-phenylpyrimidin-4-yl)amino]phenoxy}pyridin-2-yl)methyl]-4-methoxybenzenesulfonamide trifluoroacetate] the IC50 (HCT116 cells [1]) was ≤ 500 nM.

Work on `Nc1nc(Nc2ccc(Oc3ccnc(C(=O)N4CC[C@@H](O)C4)c3)cc2)cc(-c2ccccc2)n1` [Example 82, (3R)-1-[(4-{4-[(2-amino-6-phenylpyrimidin-4-yl)amino]phenoxy}pyridin-2-yl)carbonyl] pyrrolidin-3-ol trifluoroacetate (salt)] yielded an IC50 (HCT116 cells [1]) of 500 to 2000 nM.

With `Cn1cnc(S(=O)(=O)NCc2cc(Oc3ccc(Nc4cc(-c5ccccc5)nc(N)n4)cc3)ccn2)c1` [Example 93, N-[(4-{4-[(2-amino-6-phenylpyrimidin-4-yl)amino]phenoxy}pyridin-2-yl)methyl]-1-methyl-1H-imidazole-4-sulfonamide trifluoroacetate] the IC50 (HCT116 cells [1]) was > 2000 nM.

`Nc1nc(Nc2ccc(Oc3ccnc(CNS(=O)(=O)c4ccccc4)c3)cc2)cc(-c2ccccc2)n1` [Example 96, N-[(4-{4-[(2-amino-6-phenylpyrimidin-4-yl)amino]phenoxy}pyridin-2-yl)methyl]benzenesulfonamide trifluoroacetate] was tested, and the IC50 (HCT116 cells [1]) was ≤ 500 nM.

With `Nc1nc(Nc2ccc(Oc3ccnc(NCc4ccccc4)c3)cc2)cc(-c2ccccc2)n1` [Example 132, N4*-(4-{[2-(benzylamino)pyridin-4-yl]oxy}phenyl)-6-phenyl-pyrimidine-2,4-diamine trifluoroacetate] the IC50 (HCT116 cells [1]) was 500 to 2000 nM.

With `Nc1nc(Nc2ccc(Oc3ccnc(CNS(=O)(=O)c4ccc(F)cc4)c3)cc2)cc(-c2ccccc2)n1` [Example 98, N-[(4-{4-[(2-amino-6-phenylpyrimidin-4-yl)amino]phenoxy}pyridin-2-yl)methyl]-4-fluorobenzenesulfonamide trifluoroacetate] the IC50 (HCT116 cells [1]) was ≤ 500 nM.

In the case of `CCS(=O)(=O)NCc1cc(Oc2ccc(Nc3cc(-c4ccccc4)nc(N)n3)cc2)ccn1` [Example 94, N-[(4-{4-[(2-amino-6-phenylpyrimidin-4-yl)amino]phenoxy}pyridin-2-yl)methyl]ethanesulfonamide trifluoroacetate], the IC50 (HCT116 cells [1]) is reported as ≤ 500 nM.

`NC(=O)NCc1cc(Oc2ccc(Nc3cc(-c4ccccc4)nc(N)n3)cc2)ccn1` [Example 101, N-[(4-{4-[(2-amino-6-phenylpyrimidin-4-yl)amino]phenoxy}pyridin-2-yl)methyl]urea trifluoroacetate] showed an IC50 (HCT116 cells [1]) of 500 to 2000 nM.
